Assays:
Assay in all cases: ITC
[1] = system: Aptamer-2 (DNA, aptamer, none) AGGAATTCAGATCTCCCTGCAGGTGGTGTTTTTTTTGTGTGCTGTGTTTTTGTGATGCATGCTCGAGGAGCTCAGGATCCCG; settings: 10 mM NaCl, 0.5 mM KCl, 0.2 mM MgCl2, 0.1 mM CaCl2; 2 mM Tris-HCl, 23 °C; very weak or no binding
[2] = system: 84-nt aptaMETH (DNA, aptamer, none) ACTGGAGCTCAATCAGTACACGACGGTTGCAAGTGGGACTCTGGTAGGCTGGGTTAATTTGGGACAAGCTTCAACCATGGAGTA; settings: 200 mM NaCl, 5 mM MgCl2; 20 mM Tris pH 7.4, 23 °C
[3] = system: ML4 (DNA, aptamer, none) TTCAAATCTTGGTACGTTCTGCCTTTTCTTATTTTGCTTTGGGTTACCTAGTCTAGATTTGAA; settings: 0.5x PBS (about 68 mM NaCl, 1.4 mM KCl), 5 mM MgCl2
[4] = system: ML11 (DNA, aptamer, none) TTCAAATCTGAGCAGCCTAGTTACTGACGGGTTTATAGTACTCGTATTGAGTCTAGATTTGAA; settings: 0.5x PBS (about 68 mM NaCl, 1.4 mM KCl), 5 mM MgCl2, 23 °C
[5] = system: ML4-mut5 (DNA, aptamer, none) TTCAAATCTTGGTACGTTCTGCCTTTTCTTATATTGCTTTGGGTTACCTAGTCTAGATTTGAA; settings: 0.5x PBS (about 68 mM NaCl, 1.4 mM KCl), 5 mM MgCl2, 0.005% Triton X-100, 23 °C
[6] = system: ML3-mut5 (DNA, aptamer, none) TTCAAATCTTATGTACGTTCTATCGCATGGATGGGATTTTTGGTTACCTAGTCTAGATTTGAA; settings: 0.5x PBS (about 68 mM NaCl, 1.4 mM KCl), 5 mM MgCl2, 0.005% Triton X-100, 23 °C, table says NA, 2000 titrant, 50 aptamer
[7] = system: ML3 (DNA, aptamer, none) TTCAAATCTTATGTACGTTCTATCGCATGGATGGGATTTTGGGTTACCTAGTCTAGATTTGAA; settings: 0.5x PBS (about 68 mM NaCl, 1.4 mM KCl), 5 mM MgCl2; 0.5x PBS pH 7.4, 0.005% Triton X-100, 23 °C; 9.9 at 2 mM, 34.3 at 1 mM Mg2+
[8] = system: ML3-mut2 (DNA, aptamer, none) TTCAAATCTTATGTACGTACTATCGCATGGATGGGATTTTGGGTTACCTAGTCTAGATTTGAA; settings: 0.5x PBS (about 68 mM NaCl, 1.4 mM KCl), 5 mM MgCl2, 0.005% Triton X-100, 23 °C
[9] = system: MT2-R4 (DNA, aptamer, none) GGGACGACGGCAATTGCCGGTGCAGGATCTGAATTATCGTCGTCCC; settings: 137 mM NaCl, 2.7 mM KCl, 1 mM MgCl2; 1x PBS, 23 °C
[10] = system: ML10 (DNA, aptamer, none) TTCAAATCTGAGCAGCCTAGTTACTGACGGGTTTATAGTACTCACATTGAGTCTAGATTTGAA; settings: 0.5x PBS (about 68 mM NaCl, 1.4 mM KCl), 5 mM MgCl2, 23 °C
[11] = system: ML3-mut4 (DNA, aptamer, none) TTCAAATCTTATGTACGTTCTATCGCATGGATGGGATTATGGGTTACCTAGTCTAGATTTGAA; settings: 0.5x PBS (about 68 mM NaCl, 1.4 mM KCl), 5 mM MgCl2, 0.005% Triton X-100, 23 °C
[12] = system: ML4-mut1 (DNA, aptamer, none) TTCAAATCTTGGTACGTACTGCCTTTTCTTATTTTGCTTTGGGTTACCTAGTCTAGATTTGAA; settings: 0.5x PBS (about 68 mM NaCl, 1.4 mM KCl), 5 mM MgCl2, 0.005% Triton X-100, 23 °C
[13] = system: ML3-mut3 (DNA, aptamer, none) TTCAAATCTTATGTACGTTCTATCGCATGGATGTGATTTTGGGTTACCTAGTCTAGATTTGAA; settings: 0.5x PBS (about 68 mM NaCl, 1.4 mM KCl), 5 mM MgCl2, 0.005% Triton X-100, 23 °C
[14] = system: ML4-mut3 (DNA, aptamer, none) TTCAAATCTTGGTACGTTCTGCCTATTCTTATTTTGCTTTGGGTTACCTAGTCTAGATTTGAA; settings: 0.5x PBS (about 68 mM NaCl, 1.4 mM KCl), 5 mM MgCl2, 0.005% Triton X-100, 23 °C
[15] = system: ML12 (DNA, aptamer, none) TTCAAATCTGCGGCGACTAATTCTTAGTGGTGGTTGCAATGCGCTGGGATGAGTCTAGATTTGAA; settings: 0.5x PBS (about 68 mM NaCl, 1.4 mM KCl), 5 mM MgCl2, 23 °C
[16] = system: ML3-mut1 (DNA, aptamer, none) TTCAAATCTTATGTAAGTTCTATCGCATGGATGGGATTTTGGGTTACCTAGTCTAGATTTGAA; settings: 0.5x PBS (about 68 mM NaCl, 1.4 mM KCl), 5 mM MgCl2, 0.005% Triton X-100, 23 °C
[17] = system: MT2-R2 (DNA, aptamer, none) GGGACGACGAGGGGATCCATCCAATGGGGTTTGTATACGTCGTCCC; settings: 137 mM NaCl, 2.7 mM KCl, 1 mM MgCl2; 1x PBS, 23 °C
[18] = system: MT2-R3 (DNA, aptamer, none) GGGACGACGGTACCCGCCGGTGCAGGATCTGGGGTGGTGTCGTCCC; settings: 137 mM NaCl, 2.7 mM KCl, 1 mM MgCl2; 1x PBS, 23 °C
[19] = system: ML4-mut7 (DNA, aptamer, none) TTCAAATCTTGGTACGTTCTGCCTTTTCTTATTTTGCTATGGGTTACCTAGTCTAGATTTGAA; settings: 0.5x PBS (about 68 mM NaCl, 1.4 mM KCl), 5 mM MgCl2, 0.005% Triton X-100, 23 °C
[20] = system: M4 (DNA, aptamer, none) GGGACGACGCACTATGGCTAGGGTTGGTACGGTCGTGAACCGCGGGGTGTCGTCCC; settings: 137 mM NaCl, 2.7 mM KCl, 1 mM MgCl2; 1x PBS, 23 °C
[21] = system: ML4-mut6 (DNA, aptamer, none) TTCAAATCTTGGTACGTTCTGCCTTTTCTTATTTAGCTTTGGGTTACCTAGTCTAGATTTGAA; settings: 0.5x PBS (about 68 mM NaCl, 1.4 mM KCl), 5 mM MgCl2, 0.005% Triton X-100, 23 °C
[22] = system: ML4-mut2 (DNA, aptamer, none) TTCAAATCTTGGTACGTTCTGCATTTTCTTATTTTGCTTTGGGTTACCTAGTCTAGATTTGAA; settings: 0.5x PBS (about 68 mM NaCl, 1.4 mM KCl), 5 mM MgCl2, 0.005% Triton X-100, 23 °C
[23] = system: M13 (DNA, aptamer, none) GGGACGACGGCACGAGGTTATTCGTTGGTTGCACTGCGCTGGGAGGAAGTCGTCCC; settings: 137 mM NaCl, 2.7 mM KCl, 1 mM MgCl2; 1x PBS, 23 °C; lowest KD of trial 3
[24] = system: ML13 (DNA, aptamer, none) TTCAAATCTGAGCAGCCTAGTTACTGACGGGTTTATAGTACTCGCACTGAGTCTAGATTTGAA; settings: 0.5x PBS (about 68 mM NaCl, 1.4 mM KCl), 5 mM MgCl2, 23 °C
[25] = system: ML3-mut6 (DNA, aptamer, none) TTCAAATCTTATGTACGTTCTATCGCATGGATGGGATTTTGGGTTACCAAGTCTAGATTTGAA; settings: 0.5x PBS (about 68 mM NaCl, 1.4 mM KCl), 5 mM MgCl2, 0.005% Triton X-100, 23 °C, table says NA, 2000 titrant, 50 aptamer
[26] = system: ML7 (DNA, aptamer, none) TTCAAATCTGGTGCCCTTTCGCAGTCGGTTGGTAATGAGATCACTTTAGAGTCTAGATTTGAA; settings: 0.5x PBS (about 68 mM NaCl, 1.4 mM KCl), 5 mM MgCl2, 23 °C
[27] = system: MT2-R1 (DNA, aptamer, none) GGGACGACGCTAGGGGATCTTTTGGGGTTTGTATGGGCGTCGTCCC; settings: 137 mM NaCl, 2.7 mM KCl, 1 mM MgCl2; 1x PBS, 23 °C
[28] = system: ML4-mut4 (DNA, aptamer, none) TTCAAATCTTGGTACGTTCTGCCTTTACTTATTTTGCTTTGGGTTACCTAGTCTAGATTTGAA; settings: 0.5x PBS (about 68 mM NaCl, 1.4 mM KCl), 5 mM MgCl2, 0.005% Triton X-100, 23 °C

Molecule `CN[C@H](C)Cc1ccccc1` has a KD [1] of over 1000 µM, a KD [2] of over 1000 µM and a KD ([3]; 0.5x PBS, 23 °C) of 450 ± 21 µM.

In the case of `CNC(C)Cc1ccc2c(c1)OCO2` (stereo not shown), the KD ([3]; 0.5x PBS, 23 °C) is reported as 223 ± 8 µM.

Work on `CNC(C)Cc1ccc(O)cc1` (stereo not shown) yielded a KD ([3]; 0.5x PBS, 23 °C) of 255 ± 8 µM.

For `CCCC(C(=O)c1ccc2c(c1)OCO2)N1CCCC1` (stereo not shown), the KD ([3]; 0.5x PBS, 23 °C) was 344 ± 23 µM.

`COC(=O)C(c1ccccc1)C1CCCCN1` (stereo not shown) gave a KD ([3]; 0.5x PBS, 23 °C) of 749 ± 10 µM.

In the case of `CN[C@@H](C)Cc1ccccc1`, the KD [4] is reported as 2.4 ± 0.1 µM, the KD [5] is reported as 3.3 ± 0.1 µM and the KD [6] is reported as over 1000 µM. For the same molecule, the KD [7] was 1.5 ± 0.1 µM, the KD [8] was 39.0 ± 1.8 µM and the KD [9] was 10.1 ± 0.7 µM. It also gave a KD [10] of 1.9 ± 0.1 µM, a KD [1] of over 1000 µM and a KD [11] of 72.5 ± 3.1 µM. For the same molecule, the KD [12] was 67.1 ± 4.1 µM, the KD [13] was 1.4 ± 0.1 µM and the KD [14] was 3.2 ± 0.1 µM. The KD [2] was 364 ± 28 µM, the KD [15] was 5.7 ± 0.3 µM and the KD [16] was 408 ± 16 µM. The KD [17] was 5.0 ± 0.1 µM, the KD [18] was 18.0 ± 1.1 µM and the KD [19] was 64.3 ± 3.9 µM. For the same molecule, the KD [20] was 12 µM, the KD [21] was 3.8 ± 0.1 µM and the KD [22] was 4.0 ± 0.1 µM. The KD [23] was 3.3 µM, the KD [24] was 7.0 ± 0.4 µM and the KD ([3]; 0.5x PBS pH 7.4, 0.005% Triton X-100, 23 °C, 16.2 at 2 mM, 65.2 at 1 mM Mg2+) was 2.5 ± 0.1 µM. For the same molecule, the KD [25] was over 1000 µM, the KD [26] was 1.30 ± 0.03 µM and the KD [27] was 2.5 ± 0.1 µM. It also gave a KD [28] of 4.9 ± 0.2 µM.

`CC(N)Cc1ccccc1` (stereo not shown) showed a KD [15] of 18.2 ± 0.5 µM, a KD ([24]; double titration) of 140 ± 3.9 µM and a KD ([3]; 0.5x PBS, 23 °C) of 117 ± 4 µM. It also gave a KD [27] of 5.7 ± 0.2 µM.

Work on `CN[C@@H](C)[C@@H](O)c1ccccc1` yielded a KD ([3]; 0.5x PBS, 23 °C) of 372 ± 24 µM.
